The assay concerns the target T1, kinase-domain human PKCι (Homo sapiens, UniProt P41743).
T1 construct: Recombinant, kinase-domain human PKCι is expressed and purified in-house; made in house
T1 sequence (P41743 254-522 limits assumed): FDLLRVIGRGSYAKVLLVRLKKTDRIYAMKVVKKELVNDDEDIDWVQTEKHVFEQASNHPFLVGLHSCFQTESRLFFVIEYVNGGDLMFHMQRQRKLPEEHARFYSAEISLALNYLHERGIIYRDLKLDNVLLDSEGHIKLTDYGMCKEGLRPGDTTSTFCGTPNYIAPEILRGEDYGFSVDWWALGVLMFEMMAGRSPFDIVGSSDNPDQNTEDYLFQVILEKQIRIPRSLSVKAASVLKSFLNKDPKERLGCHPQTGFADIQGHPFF
Description: PKCι IC50 IMAP fluorescence polarisation assay, kinase-domain enzyme. To be noted: kinase domain PKCi at 2 μM ATP; read-out: IC50 in IMAP assay against kinase domain PKCi (Activity). The class given is biochemical. (In fluorescence polarisation assays a small probe gives low polarisation when free and higher when bound to something large.)

Experimental findings from patent US10183950B2, “Thienopyrimidine inhibitors of atypical protein kinase C” (Cancer Research Technology Limited, priority 2011, dated 2019) are described below.

One may read the IC50 as the point on the concentration scale where inhibition reaches its midpoint.

Take `Cc1ccccc1C[C@H](N)COc1nc(-c2ccncc2)nc2sc3c(c12)CCCC3` [compound 174, (S)-1-(2-Methyl-benzyl)-2-(2-pyridin-4-yl-5,6,7,8-tetrahydro-benzo[4,5]thieno[2,3-d]pyrimidin-4-yloxy)-ethylamine]: the IC50 lay within 1000 to 10000 nM. Next, `N[C@H](COc1nc(-c2ccncc2)nc2sc3c(c12)CCCC3)Cc1c[nH]cn1` [compound 175, (S)-1-(1H-Imidazol-4-ylmethyl)-2-(2-pyridin-4-yl-5,6,7,8-tetrahydro-benzo[4,5]thieno[2,3-d]pyrimidin-4-yloxy)-ethylamine]: 10000 to 40000 nM; `N[C@@H](COc1nc(-c2ccncc2)nc2sc3c(c12)CCCC3)Cc1csc2ccccc12` [compound 176, (R)-1-Benzo[b]thiophen-3-ylmethyl-2-(2-pyridin-4-yl-5,6,7,8-tetrahydro-benzo[4,5]thieno[2,3-d]pyrimidin-4-yloxy)-ethylamine]: 10000 to 40000 nM. As to `N[C@H](COc1nc(-c2ccncc2)nc2sc3c(c12)CCCC3)Cc1csc2ccccc12` [compound 177, (S)-1-Benzo[b]thiophen-3-ylmethyl-2-(2-pyridin-4-yl-5,6,7,8-tetrahydro-benzo[4,5]thieno[2,3-d]pyrimidin-4-yloxy)-ethylamine], the IC50 lay in the range of 10000 to 40000 nM. As for `c1cc(-c2nc(OC[C@H]3CCCCN3)c3c4c(sc3n2)CCCC4)ccn1` [compound 178, 4-((R)-1-Piperidin-2-ylmethoxy)-2-pyridin-4-yl-5,6,7,8-tetrahydro-benzo[4,5]thieno[2,3-d]pyrimidine], the IC50 lay within 1000 to 10000 nM. Consider `c1cc(-c2nc(OC[C@@H]3CCCCN3)c3c4c(sc3n2)CCCC4)ccn1` [compound 179, 4-((S)-1-Piperidin-2-ylmethoxy)-2-pyridin-4-yl-5,6,7,8-tetrahydro-benzo[4,5]thieno[2,3-d]pyrimidine], for which the IC50 is 10000 to 40000 nM.

For `COc1cccc(C[C@H](N)COc2nc(-c3ccncc3)nc3sc4c(c23)CCCC4)c1` [compound 180, (S)-1-(3-Methoxy-benzyl)-2-(2-pyridin-4-yl-5,6,7,8-tetrahydro-benzo[4,5]thieno[2,3-d]pyrimidin-4-yloxy)-ethylamine], the IC50 was in the range of 1000 to 10000 nM. Take `NCCNc1nc(-c2cn[nH]c2)nc2sc3c(c12)CCCC3` [compound 181, N*1*-[2-(1H-Pyrazol-4-yl)-5,6,7,8-tetrahydro-benzo[4,5]thieno[2,3-d]pyrimidin-4-yl]-ethane-1,2-diamine]: the IC50 was 100 to 1000 nM.

As for `Cc1n[nH]c(C)c1-c1nc(NCCN)c2c3c(sc2n1)CCCC3` [compound 182, N*1*-[2-(3,5-Dimethyl-1H-pyrazol-4-yl)-5,6,7,8-tetrahydro-benzo[4,5]thieno[2,3-d]pyrimidin-4-yl]-ethane-1,2-diamine], the concentration for half-maximal inhibition (IC50) lay in the range of 100 to 1000 nM. With `N[C@H](CNc1nc(-c2cn[nH]c2)nc2sc3c(c12)CCCC3)Cc1ccccc1` [compound 183, (S)-3-Phenyl-N*1*-[2-(1H-pyrazol-4-yl)-5,6,7,8-tetrahydro-benzo[4,5]thieno[2,3-d]pyrimidin-4-yl]-propane-1,2-diamine], the IC50 is 100 to 1000 nM. For the compound `Cc1n[nH]c(C)c1-c1nc(NC[C@@H](N)Cc2ccccc2)c2c3c(sc2n1)CCCC3` [compound 184, (S)-N*1*-[2-(3,5-Dimethyl-1H-pyrazol-4-yl)-5,6,7,8-tetrahydro-benzo[4,5]thieno[2,3-d]pyrimidin-4-yl]-3-phenyl-propane-1,2-diamine], the IC50 is 1000 to 10000 nM. `c1n[nH]cc1-c1nc(N2CCNCC2)c2c3c(sc2n1)CCCC3` [compound 185, 4-Piperazin-1-yl-2-(1H-pyrazol-4-yl)-5,6,7,8-tetrahydro-benzo[4,5]thieno[2,3-d]pyrimidine]: the IC50 fell in the range of 100 to 1000 nM. Turning to `c1n[nH]cc1-c1nc(N2CCCNCC2)c2c3c(sc2n1)CCCC3` [compound 186, 4-[1,4]Diazepan-1-yl-2-(1H-pyrazol-4-yl)-5,6,7,8-tetrahydro-benzo[4,5]thieno[2,3-d]pyrimidine], the IC50 is 100 to 1000 nM.
